Measurements published in article PMC4791274, “Cerdulatinib, a novel dual SYK/JAK kinase inhibitor, has broad anti-tumor activity in both ABC and GCB types of diffuse large B cell lymphoma” (Oncotarget, 2015).

Assays:
LY18 cells [1] = assay: PARP and caspase 3 cleavage, Western blotting; assay type: cell-based; conditions: LY18, 48 h
Protocol: (§1) Immunoblotting were performed as previously described. Antibodies including total STAT3, SYK, PLCγ2, AKT, ERK1/2, PARP, caspase 3, and phosphorylated STAT3 (S727), STAT3 (Y705), SYK (Y525/526), PLCγ2 (Y759), PLCγ2 (Y1217), AKT (S473), ERK1/2 (Y204) and RB (S807/811) were purchased from Cell Signaling (Danvers, MA). Cyclin E antibody was purchased from Santa Cruz Biotechnology (Dallas, TX), and β-actin antibody was purchased from Sigma-Aldrich (St Louis, MO). Antibodies used in phosphoflow assay, including phosphorylated STAT3 (S727), SYK (Y525/526), PLCγ2 (Y759), AKT (S473), and ERK1/2 (Y204) were purchased from BD Biosciences (San Jose, CA).

ITK = conditions: biochemical assay; cited from earlier work
FMS = conditions: biochemical assay; cited from earlier work
MST2 = conditions: biochemical assay; cited from earlier work
LY3 cells = assay: cell cycle analysis, BrdU incorporation; assay type: cell-based; conditions: LY3, 48 h
Protocol: (§2) DLBCL cells were treated with various concentrations of cerdulatinib for 48 h. Cells were incubated with 10 μM BrdU (BD Biosciences, San Jose, CA) at 37°C for 2 h, and stained with PE conjugated anti-BrdU antibody (BD Biosciences) according to the supplier's manual. The percentage of cell cycle distribution was analyzed with FlowJo (Tree Star Inc. Ashland, OR).

DHL6 cells = assay: cell cycle analysis, BrdU incorporation; assay type: cell-based; conditions: DHL6, 48 h
Protocol: as §2

HBL1 cells = assay: cell cycle analysis, BrdU incorporation; assay type: cell-based; conditions: HBL1, 48 h
Protocol: as §2

DHL2 cells = assay: cell cycle analysis, BrdU incorporation; assay type: cell-based; conditions: DHL2, 48 h
Protocol: as §2

LY18 cells [2] = assay: cell cycle analysis, BrdU incorporation; assay type: cell-based; conditions: LY18, 48 h
Protocol: as §2

AMPK = conditions: biochemical assay; cited from earlier work
[3] = system: BCR-stimulated DLBCL cells; assay: BrdU S-phase analysis under BCR stimulation; assay type: cell-based; conditions: 3 μM, 48 h, anti-IgM and anti-IgG stimulation
Protocol: as §2

[4] = system: BCR-stimulated DLBCL cells; assay: annexin V / 7-AAD viability under BCR stimulation; assay type: cell-based; conditions: 3 μM, 48 h, anti-IgM and anti-IgG stimulation, all cell lines tested
Protocol: (§3) DLBCL cell lines were treated with various concentrations of cerdulatinib for up to 72 h. The metabolic activities of cells were determined with MTT assay according to manufacturer's instruction (Roche Applied Science, Indianapolis, IN) at 72 h time point. IC50 was calculated using the Sigma Plot generated with GraphPad Prism 6 software (GraphPad, La Jolla, CA). Cell growth was measured at every 24 h counting live cells with flow cytometry as previously described. Cells were collected every 24 h and cell viability was determined by the PE Annexin V Apoptosis Detection Kit I (BD Biosciences).

ABC DLBCL cell lines = assay: MTT assay, ABC cell lines; assay type: cell-based; conditions: ABC cell lines with relatively higher total and phosphorylated STAT3, 72 h
Protocol: as §3

SYK = conditions: biochemical assay; cited from earlier work
JNK3 = conditions: biochemical assay; cited from earlier work
[5] = system: patients with CLL and NHL; parameters: method as in Flinn I, et al. 2015 ASCO annual meeting Abstract #8531; conditions: oral, ref Flinn I, et al. 2015 ASCO annual meeting Abstract #8531; cited from earlier work
JAK1 = conditions: biochemical assay; cited from earlier work
24 kinases = conditions: biochemical assays, Table 1; read-out: IC50's against 24 kinases; cited from earlier work
p-SYK = assay: immunoblotting of p-SYK in BCR-stimulated DLBCL cell lines; assay type: cell-based; conditions: 3 μM, anti IgM/IgG stimulated, all five cell lines
Protocol: as §1

FLT3 = conditions: biochemical assay; cited from earlier work
LYN = conditions: cited from earlier work
CHK1 = conditions: biochemical assay; cited from earlier work
[6] = system: primary CLL cells with the BTK C481S mutation; conditions: cited from earlier work
GCK = conditions: biochemical assay; cited from earlier work
[7] = system: phosphorylation of STAT3 at Y705; assay: immunoblotting of p-STAT3 in IL-6/IL-10 stimulated DLBCL cell lines; assay type: cell-based; conditions: 3 μM, IL-6 and IL-10 stimulated ABC and GCB cell lines
Protocol: as §1

ZAP70 = conditions: cited from earlier work
TSSK = conditions: biochemical assay; cited from earlier work
PAR1B-α = conditions: biochemical assay; cited from earlier work

CCS(=O)(=O)N1CCN(c2ccc(Nc3ncc(C(N)=O)c(NC4CC4)n3)cc2)CC1 [cerdulatinib]
PARP and caspase 3 cleavage (LY18 cells [1]): little changes | IC50 (ITK): 194 nM | IC50 (FMS): 5 nM | IC50 (MST2): 15 nM | effect on S phase fraction (LY3 cells): modest | S phase fraction (DHL6 cells): significant dose-dependent reduction | S phase fraction (HBL1 cells): significant dose-dependent reduction | effect on S phase fraction (DHL2 cells): modest | S phase fraction (LY18 cells [2]): significant dose-dependent reduction | IC50 (AMPK): 6 nM | S-phase of BCR-stimulated tumor cells [3]: sensitive | viability of stimulated DLBCL cells [4]: reduced | IC50 (ABC DLBCL cell lines): 290 to 1800 nM | IC50 (SYK): 32 nM | IC50 (JNK3): 18 nM | target tumor reductions [5]: greater than 50% | IC50 (JAK1): 12 nM | IC50 (24 kinases): < 200 nM | p-SYK level (p-SYK): significant reduction | IC50 (FLT3): 90 nM | cellular activity against LYN (LYN): lacking cellular activity | IC50 (CHK1): 42 nM | proliferation of ibrutinib-resistant cells [6]: completely blocking | IC50 (GCK): 18 nM | phosphorylation of STAT3 at Y705 [7]: completely blocked | cellular activity against ZAP70 (ZAP70): lacking cellular activity | IC50 (TSSK): 14 nM | IC50 (PAR1B-α): 13 nM
